{
  "source": "patent US20050143463A1",
  "about": "“Method of inhibiting angiogenesis” (THE QUEEN ELIZABETH HOSPITAL RESEARCH FOUNDATION INC., priority 2002, published 2005)",
  "system": "chicken chorioallantoic membrane (CAM)",
  "test": "Chicken chorioallantoic membrane (CAM) assay for angiogenesis",
  "format": "in vivo",
  "conditions": "for Vein length (%) / Artery length (%) / Total vessel length (%) / Vein Diameter (%): % of control, Mean ± SEM",
  "protocol": "Fertilised chicken eggs (HiChick Breeding Co, Kapunda, South Australia) were incubated for three days at 38° C. On Day 3 the embryos were cracked out of the egg and into a cup made of plastic piping, with plastic film stretched over the top to form a hammock for the egg to be suspended in. Two ml of DMEM containing penicillin and streptomycin was added to each cup prior to the egg being added. A petri dish on the top maintained sterility. Incubation continued in a humidified 37° C. incubator.\nOn Day 4 the chorioallantoic membrane (CAM) begins to grow, and pictures were taken of each embryo at ×5 to measure the CAM area using image analysis software (Video Pro 32, Leading Edge Pty Ltd, South Australia).\nEmbryos were then grouped according to their CAM area, with a control embryo in each for comparison. Grouping is critical as in these early developmental stages changes in the CAM growth are dramatic. Relatively small differences in size on Day 4 translate to large differences in the CAM on Day 5. Treatment was applied in methylcellulose discs, which were dried under vacuum overnight. The methylcellulose discs were applied to the top of the CAM, and at the beginning of treatment were at least three to four-fold bigger than the CAM area, meaning treatment covered the entire CAM surface.\nOn Day 5 skim milk with contrast medium was injected into the CAM. Pictures were then taken at various levels of magnification up to ×63. Quantitative measurements were made from ×5 pictures. CAM area, and vein and artery lengths were measured using image analysis (Video Pro 32, Leading Edge Pty Ltd, South Australia). Relative vessel lengths were then calculated as the total length/CAM area. Statistical analysis was made using SigmaStat and OneWay ANOVA with p<0.05 as the level of significance.",
  "data": [
    {"smiles": "CCC(C)CCCCCCCCCCC(=O)O", "note": "(centres unmarked) [12-MTA, 12-methyltetradecanoic acid]", "values": [
      {"measurement": "Vein length (%)", "setting": "25 nmol on methylcellulose disc", "result": "82.1 ± 22.9", "unit": "%"},
      {"measurement": "Artery length (%)", "setting": "25 nmol", "result": "81.8 ± 11.6", "unit": "%"},
      {"measurement": "Total vessel length (%)", "setting": "25 nmol", "result": "79.8 ± 15.0", "unit": "%"},
      {"measurement": "Vein Diameter (%)", "setting": "25 nmol", "result": "89.3 ± 25.2", "unit": "%"},
      {"measurement": "Vein length (%)", "setting": "50 nmol on methylcellulose disc", "result": "74.4 ± 20.8", "unit": "%"},
      {"measurement": "Artery length (%)", "setting": "50 nmol", "result": "78.8 ± 12.2", "unit": "%"},
      {"measurement": "Total vessel length (%)", "setting": "50 nmol", "result": "74.9 ± 14.7", "unit": "%"},
      {"measurement": "Vein Diameter (%)", "setting": "50 nmol", "result": "59.1 ± 11.2", "unit": "%"},
      {"measurement": "Vein length (%)", "setting": "100 nmol on methylcellulose disc", "result": "46.0 ± 8.7^1%"},
      {"measurement": "Artery length (%)", "setting": "100 nmol", "result": "63.8 ± 4.0^1%"},
      {"measurement": "Total vessel length (%)", "setting": "100 nmol", "result": "54.9 ± 4.3^1%"},
      {"measurement": "Vein Diameter (%)", "setting": "100 nmol", "result": "45.9 ± 10.0^1%"},
      {"measurement": "number of branching capillaries sprouting from the main vessels", "setting": "500 nmol", "result": "reduction"},
      {"measurement": "vessel area", "setting": "500 nmol", "result": "diminished"},
      {"measurement": "cytotoxicity to the embryo", "setting": "chicken embryo, CAM assay", "result": "not cytotoxic"},
      {"measurement": "inhibition of angiogenesis in the CAM assay, dose dependent (in words)", "setting": "dose dependent manner", "result": "inhibit angiogenesis"},
      {"measurement": "effect of the lowest dose on vein length, artery length, total vessel length and vein diameter (in words)", "setting": "lowest dose (25 nmol)", "result": "inhibited"}
    ]}
  ]
}
